Laboratory results published in patent US11046714B2, “2,2-difluorodioxolo A2A receptor antagonists” (Merck Sharp & Dohme Corp., priority 2013, dated 2021).

Target: human A2A receptor (Homo sapiens (Human), UniProt P29274)
Assay: competition binding assay using Scintillation Proximity technology
Details: membranes from CHO-K1 cells expressing the human A2a receptor; 2.0 nM tritiated compound; Cheng-Prusoff
Experimental: The utility of the compounds in accordance with the present invention as A2A receptor antagonists may be readily determined without undue experimentation by methodologies well known in the art, including by a competition binding assay using Scintillation Proximity technology. Briefly, membranes from CHO-K1 cells expressing the human A2A receptor are incubated with a test compound at various concentrations, e.g., ranging from 3000 nM to 0.15 nM, in a reaction mixture also containing a tritiated form of 5-amino-7-[2-phenethyl]-2-(furan-2-yl)-7H-pyrazolo[4,3-e][1,2,4]triazolo[1,5-c]pyrimidine (the tritiated compound) and wheatgerm agglutin-coated yttrium silicate SPA beads at room temperature. The beads are then allowed to settle to the bottom of the wells, after which the membrane-associated radioactivity is determined by scintillation counting in a microplate reader. Ki values can be determined using the Cheng-Prusoff equation.
Thus, 1.0 μg of membranes from CHO-K1 cells expressing the human A2a receptor were incubated with a compound of the invention at concentrations ranging from 3000 nM to 0.15 nM in a reaction mixture also containing 2.0 nM of a tritiated form of 5-amino-7-[2-phenethyl]-2-(furan-2-yl)-7H-pyrazolo[4,3-e][1,2,4]triazolo[1,5-c]pyrimidine (the tritiated compound) and 100 μg of wheatgerm agglutin-coated yttrium silicate SPA beads for one hour at room temperature with agitation. The beads were then allowed to settle to the bottom of the wells for 1 hr, after which the membrane-associated radioactivity was determined by scintillation counting in a TopCount microplate reader. Ki values were determined using the Cheng-Prusoff equation.
Summary of Materials and Methods Used in A2a Activity Determination:
• Membranes from CHO-K1 cells expressing the human Adenosine2A receptor (Perkin-Elmer #RBHA2AM400UA). • The tritiated compound was prepared according to published methods. • Wheatgerm agglutinin-coated yttrium silicate SPA beads (GE Healthcare #RPNQ0023). Dilute to 25 mg/ml in Assay Buffer. • Assay Buffer: Dulbecco's calcium and magnesium free phosphate buffered saline+10 mM MgCl2 • Adenosine deaminase (ADA) from calf intestine, 10 mg/2 ml (Roche #10 102 105 001). • DMSO • A2a antagonist standard (9-chloro-1-(2-furanyl)-[1,2,4]triazolo[1,5-c]quinazolin-5-amine from Tocris Bioscience) Compound Dilution • Make eight 1:3 serial dilutions in 100% DMSO from a 3 mM compound stock. • Transfer 50 nL of compound into a 384-well OptiPlate (Perkin Elmer). • Typically, final concentrations of compound used in the assay ranged from 3000 nM to 0.152 nM. Radioisotope • Dilute a solution of the tritiated compound to 5.0 nM in assay buffer. This is a 2.5× solution. The final concentration in the assay is 2.0 nM. Calculate the concentration by counting two 5 μL aliquots. Membrane Preparation • Use 1.0 μg of membrane/well. Dilute membranes to 33 μg/mL in assay buffer. Treat with 20 μg/mL ADA for 15 minutes at room temperature to degrade endogenous adenosine. Membrane-Bead Mixture • Use 100 μg/well wheatgerm agglutinin-coated yttrium silicate SPA beads. • Mix ADA-treated membranes and SPA beads together for 30 min prior to assay. Assay Assembly • To the Perkin-Elmer Optiplate-384 containing the compound titration add 20 μL of 2.5× solution of the tritiated compound and 30 μL of the membrane-bead mixture. Incubate for one hour at room temperature with agitation. • Include total binding (assay buffer+1% DMSO) and non-specific binding (CGS 15943, 1 μM) wells. Counting • Allow the beads to settle for one hour. • Count in TopCount. Calculations • A curve fitting program (i.e., Prism, Activity Base, Chemcart) is used to determine the EC50. The Ki value is calculated using the Cheng-Prusoff equation. Ki=EC50/(1+(radioligand concentration/Kd))

Sequence of human A2A receptor (P29274 whole entry): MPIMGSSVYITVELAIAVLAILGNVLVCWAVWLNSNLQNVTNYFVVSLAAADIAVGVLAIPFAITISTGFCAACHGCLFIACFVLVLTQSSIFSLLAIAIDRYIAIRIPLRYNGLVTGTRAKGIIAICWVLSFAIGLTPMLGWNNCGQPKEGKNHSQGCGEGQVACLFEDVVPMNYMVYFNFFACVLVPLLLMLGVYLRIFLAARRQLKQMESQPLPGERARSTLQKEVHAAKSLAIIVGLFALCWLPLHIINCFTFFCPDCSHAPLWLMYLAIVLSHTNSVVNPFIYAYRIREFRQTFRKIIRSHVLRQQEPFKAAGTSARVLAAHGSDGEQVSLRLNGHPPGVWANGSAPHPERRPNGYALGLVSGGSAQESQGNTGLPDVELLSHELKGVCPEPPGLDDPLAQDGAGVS

Row | Ki [nM] | SMILES
1 | 16 | Nc1nc2c3c(ccc2c2nc(CN4Cc5cnc(C(F)(F)F)nc5C4)nn12)OC(F)(F)O3 [Example 121, 2,2-difluoro-8-{[2-(trifluoromethyl)-5,7-dihydro-6H-pyrrolo[3,4-d]pyrimidin-6-yl]methyl}[1,3]dioxolo [4,5-h][1,2,4]triazolo[1,5-c]quinazolin-5-amine]
2 | 25 | CC(c1nc2c3ccc4c(c3nc(N)n2n1)OC(F)(F)O4)N1CCCC(F)(F)C1 (single isomer, unassigned) [Example 136, 8-[(1S or 1R)-1-(3,3-difluoropiperidin-1-yl)ethyl]-2,2-difluoro[1,3]dioxolo [4,5-h][1,2,4]triazolo[1,5-c] quinazolin-5-amine]
3 | 5.9 | Nc1nc2c3c(ccc2c2nc(CN4CC(F)(F)C4)nn12)OC(F)(F)O3 [Example 109, 8-((3,3-difluoroazetidin-1-yl)methyl)-2,2-difluoro-[1,3]dioxolo[4,5-h][1,2,4]triazolo[1,5-c]quinazolin-5-amine]
4 | 89 | CC(c1nc2c3ccc4c(c3nc(N)n2n1)OC(F)(F)O4)N1CCCC(F)(F)C1 (single isomer, unassigned) [Example 135, 8-[(1S or 1R)-1-(3,3-difluoropiperidin-1-yl)ethyl]-2,2-difluoro[1,3]dioxolo [4,5-h][1,2,4]triazolo[1,5-c] quinazolin-5-amine]
5 | 1.8 | Cc1nc2c(s1)CCN(CCc1nc3c4ccc5c(c4nc(N)n3n1)OC(F)(F)O5)C2 [Example 13, 2,2-difluoro-8-[2-(2-methyl-6,7-dihydro[1,3]thiazolo[4,5-c]pyridin-5(4H)-yl)ethyl][1,3] dioxolo[4,5-h][1,2,4]triazolo [1,5-c]quinazolin-5-amine]
6 | 2.8 | Nc1nc2c3c(ccc2c2nc(CN4CC(O)(C(F)(F)F)C4)nn12)OC(F)(F)O3 [Example 113, 11-[(5-amino-2,2-difluoro[1,3]dioxolo [4,5-h][1,2,4]triazolo[1,5-c]quinazolin-8-yl)methyl]-3-(trifluoromethyl) azetidin-3-ol]
7 | 1.8 | C[C@@H]1CN(c2nsnc2Cl)CCN1CCc1nc2c3ccc4c(c3nc(N)n2n1)OC(F)(F)O4 [Example 46, 8-{2-[(2R)-4-(4-chloro-1,2,5-thiadiazol-3-yl)-2-methylpiperazin-1-yl]ethyl}-2,2-difluoro[1,3]dioxolo[4,5-h][1,2,4]triazolo[1,5-c]quinazolin-5-amine]
8 | 3 | Nc1nc2c3c(ccc2c2nc(CCN4CC5CC4C(F)(F)C5)nn12)OC(F)(F)O3 (single isomer, unassigned) [Example 66, (R or S)-8-[2-(6,6-difluoro-2-azabicyclo[2.2.1]hept-2-yl)ethyl]-2,2-difluoro[1,3]dioxolo[4,5-h][1,2,4] triazolo[1,5-c]quinazolin-5-amine]
9 | 1.2 | CC(Cc1nc2c3ccc4c(c3nc(N)n2n1)OC(F)(F)O4)N1Cc2cccnc2C1 (single isomer, unassigned) [Example 91, 8-[(2R or 2S)-2-(5,7-dihydro-6H-pyrrolo[3,4-b]pyridin-6-yl)propyl]-2,2-difluoro[1,3]dioxolo[4,5-h][1,2,4]triazolo[1,5-c]quinazolin-5-amine]
10 | 130 | CC(c1nc2c3ccc4c(c3nc(N)n2n1)OC(F)(F)O4)N1CC(F)(F)C1 (single isomer, unassigned) [Example 131, (R or S)-8-[1-(3,3-difluoroazetidin-1-yl)ethyl]-2,2-difluoro[1,3]dioxolo [4,5-h][1,2,4]triazolo[1,5-c]quinazolin-5-amine]
11 | 4.2 | Nc1nc2c3c(ccc2c2nc(CN4CCCC(F)(F)C4)nn12)OC(F)(F)O3 [Example 118, 8-[(3,3-difluoropiperidin-1-yl)methyl]-2,2-difluoro[1,3]dioxolo[4,5-h][1,2,4] triazolo[1,5-c]quinazolin-5-amine]
12 | 7.7 | CC1(F)CCCN(CCc2nc3c4ccc5c(c4nc(N)n3n2)OC(F)(F)O5)C1 (single isomer, unassigned) [Example 64, (R or S)-2,2-difluoro-8-[2-(3-fluoro-3-methylpiperidin-1-yl)ethyl][1,3] dioxolo[4,5-h][1,2,4]triazolo[1,5-c] quinazolin-5-amine]
13 | 16 | C[C@H](Cc1nc2c3ccc4c(c3nc(N)n2n1)OC(F)(F)O4)N1CCCC(C)(F)C1 (single isomer, unassigned) [Example 86, 2,2-difluoro-8-{(2R)-2-[(3R or 3S)-3-fluoro-3-methylpiperidin-1-yl]propyl}[1,3]dioxolo[4,5-h][1,2,4]triazolo[1,5-c]quinazolin-5-amine]
14 | 1.8 | C[C@H](Cc1nc2c3ccc4c(c3nc(N)n2n1)OC(F)(F)O4)N1CCc2ccncc21 [Example 76, 8-[(2R)-2-(2,3-dihydro-1H-pyrrolo [2,3-c]pyridin-1-yl)propyl]-2,2-difluoro[1,3]dioxolo[4,5-h][1,2,4] triazolo[1,5-c]quinazolin-5-amine]
15 | 1 | Cc1cc(C)n(Cc2nc3c4ccc5c(c4nc(N)n3n2)OC(F)(F)O5)n1 [Example 129, 8-[(3,5-dimethyl-1H-pyrazol-1-yl)methyl]-2,2-difluoro[1,3]dioxolo[4,5-h][1,2,4]triazolo[1,5-c]quinazolin-5-amine]
16 | 3 | C[C@H]1CC(F)(F)CN1CCc1nc2c3ccc4c(c3nc(N)n2n1)OC(F)(F)O4 [Example 26, 8-{2-[(2S)-4,4-difluoro-2-methylpyrrolidin-1-yl]ethyl}-2,2-difluoro[1,3]dioxolo[4,5-h][1,2,4]triazolo[1,5-c]quinazolin-5-amine]
17 | 4.1 | CC(Cc1nc2c3ccc4c(c3nc(N)n2n1)OC(F)(F)O4)N1CC(F)(F)C1 (single isomer, unassigned) [Example 94, (R or S)-8-[2-(3,3-difluoroazetidin-1-yl)propyl]-2,2-difluoro[1,3] dioxolo[4,5-h][1,2,4]triazolo[1,5-c] quinazolin-5-amine]
18 | 3.6 | Nc1nc2c3c(ccc2c2nc(CCN4CCCC(C(F)(F)F)C4)nn12)OC(F)(F)O3 (centres unmarked) [Example 62, 2,2-difluoro-8-{2-[3-(trifluoromethyl)piperidin-1-yl]ethyl}[1,3]dioxolo[4,5-h][1,2,4]triazolo[1,5-c]quinazolin-5-amine]
19 | 1.1 | Nc1nc2c3c(ccc2c2nc(CNC4(C(F)(F)F)CCC4)nn12)OC(F)(F)O3 [Example 125, 2,2-difluoro-8-({[1-(trifluoromethyl)cyclobutyl]amino}methyl)[1,3]dioxolo [4,5-h][1,2,4]triazolo[1,5-c]quinazolin-5-amine]
20 | 3.5 | Nc1nc2c3c(ccc2c2nc(CN4CCN(c5ccc(F)cc5)CC45CC5)nn12)OC(F)(F)O3 [Example 102, 2,2-difluoro-8-((7-(4-fluorophenyl)-4,7-diazaspiro[2.5]octan-4-yl)methyl)-[1,3]dioxolo[4,5-h][1,2,4]triazolo[1,5-c]quinazolin-5-amine]
21 | 29 | CN(C)Cc1nc2c3ccc4c(c3nc(N)n2n1)OC(F)(F)O4 [Example 126, 8-[(dimethylamino)methyl]-2,2-difluoro[1,3]dioxolo[4,5-h][1,2,4] triazolo[1,5-c]quinazolin-5-amine]
22 | 2.7 | Nc1nc2c3c(ccc2c2nc(CCn4cccn4)nn12)OC(F)(F)O3 [Example 99, 8-(2-(1H-pyrazol-1-yl)ethyl)-2,2-difluoro-[1,3]dioxolo[4,5-h][1,2,4]triazolo[1,5-c]quinazolin-5-amine]
23 | 3 | Nc1nc2c3c(ccc2c2nc(CCN4CC5CC5C4)nn12)OC(F)(F)O3 (centres unmarked) [Example 35, 8-[2-(3-azabicyclo[3.1.0]hex-3-yl)ethyl]-2,2-difluoro[1,3] dioxolo[4,5-h][1,2,4]triazolo [1,5-c]quinazolin-5-amine]
